Assay [1] relates to Wnt/β-catenin signalling (GSK-3β inhibition) in C3H10T1/2 cells. Briefly: Wnt signalling luciferase reporter construct in C3H10T1/2 cells. Format: cell-based. The settings on record: C3H10T1/2 cells stimulated for 24 h; firefly normalized to Renilla luciferase; FIG. 1. The procedure:
Whether inhibition of GSK-3β in C3H10T1/2 cells leads to Wnt/β-catenin signalling activation was investigated.
C3H10T1/2 cells were transiently transfected using Fugen6 (Boehringer) with a Wnt signalling luciferase reporter construct (van de Wetering et al., 1997). To assess transfection efficacy, 20 ng of pRL-TK (Promega) encoding a Renilla luciferase gene downstream of a minimal HSV-TK promoter was systematically added to the transfection mix. Cells were stimulated with LiCl or with NaCl for 24 h. Cells were lysated and luciferase assays were performed with the Dual Luciferase Assay Kit (Promega) according to the manufacturer's instructions. 10 μl of cell lysate was assayed first for firefly luciferase and then for Renilla luciferase activity. Firefly luciferase activity was normalized to Renilla luciferase activity.
(Reporter assays use an easily measured gene product as a stand-in for the process of interest.)

The next assay has as its system C3H10T1/2 cells. Briefly: Alkaline phosphatase (ALP) osteoblast differentiation marker in C3H10T1/2 cells. Type of assay: cell-based. To be noted: C3H10T1/2 cells stimulated for 48 h; ALP activity normalized for total protein; FIG. 2. The text has this:
In vitro model used the pluripotent mesenchymal cell line C3H10T1/2 that is able to differentiate into osteoblasts when triggered with the right compound or protein. The ability of a compound to induce these C3H10T1/2 cells to differentiate into osteoblasts can be monitored by, for instance, measuring the expression of the osteoblast differentiation marker, alkaline phosphatase (ALP).
Whether inhibition of GSK-3β by LiCl in C3H10T1/2 cells leads to the expression of ALP was investigated.
C3H10T1/2 cells were stimulated with LiCl or with NaCl for 48 h. ALP activity was determined in cell lysates using Alkaline Phosphatase Opt kit (Roche Molecular Biochemicals). Cell lysates were analyzed for protein content using micro-BCA Assay kit (Pierce), and ALP activity was normalized for total protein concentration.

The test system of another assay is LRP5 knockout mice. Briefly: Bone phenotype of LRP5 knockout mice, micro-CT tomodensitometric analysis of tibia. Format: in vivo. The procedure: In vivo model uses LRP5 knock-out animals that show osteopenia phenotype resulting from the absence of the Wnt canonical signalling pathway, said signalling pathway involving GSK-3β. Thanks to this model, the effect of GSK-3β inhibitors on bone mass can be observed.
LRP5 knockout mouse model has been described as an osteopenic mouse model (Kato et al., 2002).
LiCl solution was prepared in distillated water at 55 mg/ml. Compound was administered by micropump Alzet (ref: 1002, Charles Rivers, France) to 2-3 week-old LRP5 knockout (KO) mice for 2 weeks. Tibia were prepared for tomographic analysis (Tomodensitometer Scanco μCT20, Basserdorf, Switszerland). Micro-CT scans of the metaphyseal tibia were performed at an isotropic resolution of 9 μm, to obtain trabecular bone structural parameters. Using a two- and three-dimensional model and a semiautomatic contouring algorithm, three-dimensional bone volume, bone surface, and trabecular thickness were determined (FIG. 6).
Statistical significance was determined by the ANOVA unpaired t'test.
Results of tomodensitometric analysis of metaphyseal trabecular part of tibia from 5 week-old and 4 week-old LRP5-KO mice treated with vehicle or LiCl (200 mg/kg/d) during 15 days are given in FIGS. 4 and 5, respectively.

[2] abbreviates: 4 week-old LRP5-KO mice treated for 15 days, vs vehicle, FIG. 6B/6D.
The mark [3] stands for this setting: 4 week-old LRP5-KO mice, 200 mg/kg/d during 15 days, metaphyseal trabecular tibia, vs vehicle, FIG. 5.
Where [4] appears, read: 5 week-old LRP5-KO mice, 200 mg/kg/d during 15 days, metaphyseal trabecular tibia, vs vehicle, FIG. 4.

Entries after “also recorded” stand apart in the source; their conditions may differ.

As to `[Cl-].[Li+]` [LiCl, lithium], the “luciferase expression (Wnt-signalling luciferase reporter)” value in assay [1] was “able to activate luciferase expression”. The “expression of the ALP osteoblast differentiation marker” value with C3H10T1/2 cells is given as “able to stimulate the expression of the ALP osteoblast differentiation marker”. For the same molecule, in the assay with LRP5 knockout mice (setting [2]), the “bone volume, 3-D reconstruction of trabecular part of tibia” value is listed as “increase” and the “trabecular thickness, 3-D reconstruction of trabecular part of tibia” value was “increase”. Also, in the assay on LRP5 knockout mice (setting [3]), the “BV/TV (bone volume)” value was “significantly increase”, the “Tb.N (trabecular number)” value is recorded as “significantly increase” and the “Tb.Th (trabecular thickness)” value is “significantly increase”. In the assay on LRP5 knockout mice (setting [4]), the “BV/TV (bone volume)” value is “significantly increase” and the “Tb.N (trabecular number)” value was “significantly increase”. For the same molecule, the “bone phenotype (osteopenia) of LRP5 knockout mice” value in the assay with LRP5 knockout mice (LRP5-KO mice, FIGS. 4 and 5) is “partially reversed; also recorded: partly restored”.

(Values after US20050064044A1, “GSK-3beta inhibitors in the treatment of bone-related diseases” (priority 2003, published 2005).)
